Species on record: Rattus norvegicus
Experiment: Open TG-GATES - Regimen: Single
Type: toxicity, organism-based, Sprague-Dawley
Set-up: regimen Single, gender Male, age 6 weeks
Conditions: in vivo, po, 0 mg/kg, route gavage, dose level Control; for APTT / Bas / Eos / Fbg / Hb / Ht / Lym / MCH / MCHC / MCV / Mono / Neu / PT / Plat / RBC / Ret / WBC: tissue Blood; for A/G / ALP / ALT / AST / BUN / CRE / Ca / Cl / DBIL / GLC / IP / K / LDH / Na / PL / RALB / TBIL / TC / TG / TP / gamma-GTP: tissue Plasma

## Cn1cc[nH]c1=S [METHIMAZOLE]
3 h
  TERMINAL_BW: 207.3 g
  APTT: 20.3 s
  Bas: 0%
  Eos: 0.4%
  Fbg: 292.4 mg/dL
  Hb: 13.6 g/dL
  Ht: 38.8%
  Lym: 82.4%
  MCH: 22.3 pg
  MCHC: 35.1%
  MCV: 63.5 fL
  Mono: 1.8%
  Neu: 14.6%
  PT: 15.8 s
  Plat: 122.5 x10_4/uL
  RBC: 612 x10_4/ul
  Ret: 8.6%
  WBC: 96.4 x10_2/uL
  A/G: 1.3
  ALP: 1879.2 IU/L
  ALT: 44.4 IU/L
  AST: 75.8 IU/L
  BUN: 14.4 mg/dL
  CRE: 0.2 mg/dL
  Ca: 10.6 mg/dL
  Cl: 106.8 meq/L
  DBIL: 0.002 mg/dL
  GLC: 190.6 mg/dL
  IP: 8.2 mg/dL
  K: 4.1 meq/L
  LDH: 186.8 IU/L
  Na: 142 meq/L
  PL: 143.6 mg/dL
  RALB: 3 g/dL
  TBIL: 0.02 mg/dL
  TC: 84 mg/dL
  TG: 55.6 mg/dL
  TP: 5.4 g/dL
  gamma-GTP: 1 IU/L
6 h
  TERMINAL_BW: 210.9 g
  APTT: 21.9 s
  Bas: 0%
  Eos: 0.8%
  Fbg: 287.6 mg/dL
  Hb: 13.5 g/dL
  Ht: 38.4%
  Lym: 82%
  MCH: 22.3 pg
  MCHC: 35.1%
  MCV: 63.6 fL
  Mono: 2.6%
  Neu: 13.8%
  PT: 16 s
  Plat: 117.7 x10_4/uL
  RBC: 605 x10_4/ul
  Ret: 9.1%
  WBC: 103.6 x10_2/uL
  A/G: 1.2
  ALP: 1447.2 IU/L
  ALT: 47.2 IU/L
  AST: 77.4 IU/L
  BUN: 10.8 mg/dL
  CRE: 0.1 mg/dL
  Ca: 10.6 mg/dL
  Cl: 106.4 meq/L
  DBIL: 0 mg/dL
  GLC: 185 mg/dL
  IP: 9.7 mg/dL
  K: 4.4 meq/L
  LDH: 228 IU/L
  Na: 141.8 meq/L
  PL: 141.6 mg/dL
  RALB: 3 g/dL
  TBIL: 0.022 mg/dL
  TC: 79.4 mg/dL
  TG: 54.2 mg/dL
  TP: 5.4 g/dL
  gamma-GTP: 1 IU/L
9 h
  TERMINAL_BW: 203.8 g
  APTT: 21.7 s
  Bas: 0%
  Eos: 0.8%
  Fbg: 302.2 mg/dL
  Hb: 13.4 g/dL
  Ht: 38.7%
  Lym: 81.6%
  MCH: 22 pg
  MCHC: 34.7%
  MCV: 63.4 fL
  Mono: 2.2%
  Neu: 14.8%
  PT: 16 s
  Plat: 119.6 x10_4/uL
  RBC: 610 x10_4/ul
  Ret: 7.7%
  WBC: 102.4 x10_2/uL
  A/G: 1.1
  ALP: 1453.2 IU/L
  ALT: 40.2 IU/L
  AST: 68.8 IU/L
  BUN: 11.4 mg/dL
  CRE: 0.1 mg/dL
  Ca: 10.4 mg/dL
  Cl: 106 meq/L
  DBIL: 0.002 mg/dL
  GLC: 184.2 mg/dL
  IP: 9.8 mg/dL
  K: 4.1 meq/L
  LDH: 181.8 IU/L
  Na: 141.6 meq/L
  PL: 136.8 mg/dL
  RALB: 2.9 g/dL
  TBIL: 0.014 mg/dL
  TC: 73 mg/dL
  TG: 75.6 mg/dL
  TP: 5.5 g/dL
  gamma-GTP: 1.2 IU/L
24 h
  TERMINAL_BW: 225.5 g
  APTT: 21.4 s
  Bas: 0%
  Eos: 1%
  Fbg: 315 mg/dL
  Hb: 13.7 g/dL
  Ht: 38.8%
  Lym: 78%
  MCH: 22.1 pg
  MCHC: 35.3%
  MCV: 62.5 fL
  Mono: 2.8%
  Neu: 17.4%
  PT: 15.7 s
  Plat: 124.5 x10_4/uL
  RBC: 621.4 x10_4/ul
  Ret: 8.2%
  WBC: 97.4 x10_2/uL
  A/G: 1.1
  ALP: 1887.6 IU/L
  ALT: 42.8 IU/L
  AST: 69 IU/L
  BUN: 15.8 mg/dL
  CRE: 0.1 mg/dL
  Ca: 11 mg/dL
  Cl: 104.6 meq/L
  DBIL: 0 mg/dL
  GLC: 180.6 mg/dL
  IP: 7.6 mg/dL
  K: 4.2 meq/L
  LDH: 183.2 IU/L
  Na: 142.4 meq/L
  PL: 156.6 mg/dL
  RALB: 2.9 g/dL
  TBIL: 0.004 mg/dL
  TC: 77.8 mg/dL
  TG: 120.4 mg/dL
  TP: 5.6 g/dL
  gamma-GTP: 1 IU/L

Reference: ChEMBL document CHEMBL3885861, “Open TG-GATES”
